{"source": "patent US20150290105A1", "about": "“COMPOSITION COMPRISING SYRINGARESINOL FOR IMPROVING THE SKIN” (AMOREPACIFIC CORPORATION, priority 2011, published 2015)", "key": {"MMP-9": {"system": "MMP-9", "experiment": "UV-induced MMP-9 expression in human keratinocytes (western blot)", "type": "cell-based", "details": "HaCaT cells, 50 μM, UVB 30 mJ/cm^2, FIG. 6", "procedure": "(§1) Human keratinocyte HaCaT cells were cultured in substantially the same manner as in Test Example 10.\nThe cultured cells were treated with trypsin to obtain a single-cell suspension. Then, the cells were distributed in a 6-well plate, with 2×10^5 cells per well, and cultured for 24 hours. Subsequently, after replacing the medium with DMEM not containing fetal bovine serum and culturing again for 24 hours, the cells were treated with 50 μM syringaresinol dissolved in DMSO. After treating for 24 hours, the cells were washed with PBS and UVB of 30 mJ/cm^2 was irradiated in PBS. After discarding the PBS, the cells were added to a medium containing syringaresinol of the same concentration. As a control group, the cells were cultured in the same manner without treating with syringaresinol. […] Then, after centrifuging at 4° C. for 10 minutes with 15,000 g, the supernatant was recovered and protein was quantitated using Bio-Rad Protein Dye ReagentTM. […] Bands on the film were scanned with PowerLook 2100 XL (UMAX) and analyzed with the image-analyzing program ImageMaster 2D Elite (Amersham Bioscience)."}, "[1]": {"experiment": "Skin whitening effect when applied to UVB-tanned human skin", "type": "in vivo", "details": "1% applied on upper arm after UVB, 10 weeks, 12 male subjects", "procedure": "First, opaque tapes having holes of 1.5 cm in diameter were attached on the upper arms of 12 healthy male subjects and UVB of about 1.5-2 times the minimal erythemal dose was irradiated to each subject to induce skin tanning. […] Then, the change was monitored for 10 weeks. The color of the skin was measured with 1-week interval using the CR2002 colorimeter (Minolta, Japan). The change in skin color (ΔL*) between the time when the test substance was applied and the time when the test was completed was calculated according to Equation 3. Skin whitening effect is evaluated by comparing the ΔL* of the part where the test substance was applied with that of the control part. A ΔL* value of about 2 can be interpreted as distinct skin whitening effect and one about 1.5 can be evaluated as positive skin whitening effect.\nΔL*=(L* when test was completed)−(L* when test substance was applied) [Equation 3]"}, "filaggrin": {"system": "filaggrin", "experiment": "Filaggrin expression promoting effect in human keratinocytes", "type": "cell-based", "details": "HaCaT cells, FIG. 5", "procedure": "as §1\ncDNA was synthesized in substantially the same manner as in Test Example 10 and the expression pattern of the filaggrin, involucrin and GAPDH genes was monitored substantially the same manner as in Test Example 10 using the synthesized cDNA and predesigned primers and probes (Applied Biosystems; […]; GAPDH, Hs99999905_ml)."}, "[2]": {"experiment": "Skin whitening effect when orally administered, UV-irradiated brown guinea pig", "type": "in vivo", "details": "1% in feed, 5 weeks, oral", "procedure": "Minimal erythemal dose was measured after irradiating UV to guinea pigs. After grouping the guinea pigs with 10 per each group, UV of the minimal erythemal dose was irradiated once a day, for a total of 3 times. The guinea pigs were allowed free access to feed for 5 weeks. The feed contained 1% syringaresinol or 1% vitamin C (Vit C) as a positive control. Skin pigmentation was measure using a colorimeter in substantially the same manner as in Test Example 6."}, "SIRT1": {"system": "SIRT1", "experiment": "SIRT1 expression promoting effect in human keratinocytes", "type": "cell-based", "details": "HaCaT cells, 20, 50 or 100 μM, 24 hours, FIG. 3", "procedure": "Human keratinocyte HaCaT cells or human fibroblast HDF cells were cultured under the condition of 37° C. and 5% CO2 in DMEM ((Gibco 1210-0038)) containing 10% fetal bovine serum.\nThe cultured cells were treated with syringaresinol dissolved in DMSO at a concentration of 20, 50 or 100 μM for 24 hours. Separately from this, the cells were treated with DMSO of 1/1000 of the volume of the culture medium as a negative control. After treating with the test substance, the cells were washed twice with cold PBS and RNA was extracted using TRIzol reagent (Invitrogen). Then, cDNA was synthesized using 1 μg/μL of the extracted RNA and a reverse transcription system (Promega). The expression pattern of the SIRT1 and GAPDH genes was monitored using the synthesized cDNA and predesigned primers and probes (Applied Biosystems; SIRT1, Hs01009006_ml; GAPDH, Hs99999905_ml). PCR reaction and analysis were carried out using the Rotor-Gene 3000 system (Corbett Research, Sydney, Australia). The result is shown in FIG. 3 (keratinocytes) and FIG. 4 (fibroblasts)."}, "[3]": {"experiment": "Transepidermal water loss (TEWL) in hairless mouse", "type": "in vivo, hairless mice (SKH: HR-1)", "details": "3 weeks, FIG. 8", "procedure": "30-week-old female hairless mice (SKH: HR-1) weighing 25-39 g were purchased from Charles River Laboratories (Wilmington, Mass., USA). The mice were accustomed to the laboratory environment for a week and then grouped into normal groups and test substance-treated groups, with 5 mice per each group. The mice were allowed free access to water and feed under the condition of 12-hour light/dark cycles, 23.2° C. and 55.10% humidity. For the test substance-treated groups, a patch of 1% syringaresinol dissolved in a solvent (1,3-butylene glycol:ethanol=7:3) was applied 2 times for 2 days or 200 mg/kg syringaresinol was orally administered. The control groups were treated in the same way using the solvent of the same amount instead of syringaresinol. […] Before and after the UV radiation, skin wrinkles on the exposed part were taken with replica and measured using the Visiometer system (C+K). 3 weeks after the onset of experiment, transepidermal water loss (TEWL) was measured on the back part of the hairless mouse of each group using a wireless vapometer (Delfin Technologies, Ltd., SWL 4102). […] Transepidermal water loss is the quantity of water that passes from inside the body through the skin and a larger value means poor skin moisturization ability and damaged skin barrier function. […]"}}, "data": [{"smiles": "COc1cc(C2OCC3C(c4cc(OC)c(O)c(OC)c4)OCC23)cc(OC)c1O", "note": "(stereo not shown) [Syringaresinol, syringaresinol]", "values": [{"measurement": "UV-induced MMP-9 expression", "setting": "MMP-9", "value": "inhibiting the UV-induced increase of MMP-9 expression"}, {"measurement": "Change in skin brightness (ΔL*)", "setting": "[1]", "value": "1.98 ± 0.11"}, {"measurement": "Expression of filaggrin", "setting": "filaggrin", "value": "increases the expression of filaggrin"}, {"measurement": "Skin color brightness (ΔL*)", "setting": "[2]", "value": "1.67 ± 0.25"}, {"measurement": "Increase of SIRT1 expression", "setting": "SIRT1", "value": "≥ 4", "unit": "times"}, {"measurement": "UV-induced transepidermal water loss (TEWL)", "setting": "[3]; application", "value": "decrease in UV-induced transepidermal water loss"}, {"measurement": "UV-induced transepidermal water loss (TEWL)", "setting": "[3]; oral administration", "value": "decrease in UV-induced transepidermal water loss"}]}]}
